From US4206215A, “Antimicrobial bis-[4-(substituted-amino)-1-pyridinium]alkanes” (Sterling Drug Inc., priority 1977, dated 1980)

Legend:
S. Aureus Smith = experiment: In vitro antibacterial activity, MIC (modified Autotiter method); format: cell-based, Staphylococcus aureus; conditions: Staphylococcus aureus, 20 h, 18-20 hours at 37° C.; read-out: MIC S. Aureus Smith
Summary of the method: (§1)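 Final drug range: 500 → 0.06 mcg./ml., twofold decrements, in inoculated semisynthetic glucose medium. Dilution performed by Autotiter transfer loops in sterile water from a 1,000 mcg./ml. compound solution.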

K. pneum. 39645 = experiment: as above; format: cell-based, Klebsiella pneumoniae; conditions: Klebsiella pneumoniae, 20 h, 18-20 hours at 37° C.; read-out: MIC K. pneum. 39645
Summary of the method: as §1

[1] = system: Herpes simplex type 2 virus; experiment: Virucidal activity in vitro (plaque inhibition test); format: cell-based; conditions: 2 mg. of test compound on growth medium
Description: Virucidal activity of representative examples against Herpes simplex type 2 virus was determined in vitro employing a procedure similar to the plaque inhibition test for detection of specific inhibitors of DNA-containing viruses published by E. C. Herrmann, Jr., Proc. Soc. Exp. Biol. Med. 107, 142 (1961) wherein 2 mg. of the test compound was placed on the surface of the growth medium.

C. albicans 10231 = experiment: In vitro antifungal activity, MIC (modified Autotiter method); format: cell-based, Candida albicans; conditions: Candida albicans, 10231, 20 h, 18-20 hours at 37° C.; read-out: MIC C. albicans 10231
Summary of the method: as §1

C. albicans Wisc. = experiment: as above; format: cell-based, Candida albicans; conditions: Candida albicans, 20 h, 18-20 hours at 37° C.; read-out: MIC C. albicans Wisc.
Summary of the method: as §1

E. coli AB1932-1 = experiment: In vitro antibacterial activity, MIC (modified Autotiter method); format: cell-based, Escherichia coli; conditions: Escherichia coli, AB19321, 20 h, 18-20 hours at 37° C.; read-out: MIC E. coli AB1932-1
Summary of the method: as §1

E. coli Vogel = experiment: as above; format: cell-based, Escherichia coli; conditions: Escherichia coli, 20 h, 18-20 hours at 37° C.; read-out: MIC E. coli Vogel
Summary of the method: as §1

E. coli 100/B22 = experiment: as above; format: cell-based, Escherichia coli; conditions: Escherichia coli, 100/B22, 20 h, 18-20 hours at 37° C.; read-out: MIC E. coli 100/B22
Summary of the method: as §1

P. mirab. MGH-1 = experiment: as above; format: cell-based, Proteus mirabilis; conditions: Proteus mirabilis, 20 h, 18-20 hours at 37° C.; read-out: MIC P. mirab. MGH-1
Summary of the method: as §1

S. pyogen. C203 = experiment: as above; format: cell-based, Streptococcus pyogenes; conditions: Streptococcus pyogenes, 20 h, 18-20 hours at 37° C.; read-out: MIC S. pyogen. C203
Summary of the method: as §1

T. menta. 9129 = experiment: In vitro antifungal activity, MIC (modified Autotiter method); format: cell-based, Trichophyton mentagrophytes; conditions: Trichophyton mentagrophytes, 20 h, 18-20 hours at 37° C.; read-out: MIC T. menta. 9129
Summary of the method: as §1

A. niger 16404 = experiment: as above; format: cell-based, Aspergillus niger; conditions: Aspergillus niger, 16404, 20 h, 18-20 hours at 37° C.; read-out: MIC A. niger 16404
Summary of the method: as §1

Ps. aerug. MGH-2 = experiment: In vitro antibacterial activity, MIC (modified Autotiter method); format: cell-based, Pseudomonas aeruginosa; conditions: Pseudomonas aeruginosa, 20 h, 18-20 hours at 37° C.; read-out: MIC Ps. aerug. MGH-2
Summary of the method: as §1

Structure (SMILES)	MIC (S. Aureus Smith)	MIC (K. pneum. 39645)	Virucidal activity against Herpes simplex type 2 virus [1]	MIC (C. albicans 10231)	MIC (C. albicans Wisc.)	MIC (E. coli AB1932-1)	MIC (E. coli Vogel)	MIC (E. coli 100/B22)	MIC (P. mirab. MGH-1)	MIC (S. pyogen. C203)	MIC (T. menta. 9129)	MIC (A. niger 16404)	MIC (Ps. aerug. MGH-2)
CCCCC(CC)CNc1cc[n+](CCCC[n+]2ccc(NCC(CC)CCCC)cc2)cc1 (stereo not shown) [Example 63, 1,4-bis-[4-(2-ethylhexylamino)-1-pyridinium]butane dibromide]	0.98 µg/mL	> 125 µg/mL	active	31.3 µg/mL	31.3 µg/mL	7.8 µg/mL	62.5 µg/mL	31.3 µg/mL	> 125 µg/mL	1.25 µg/mL	15.6 µg/mL	31.3 µg/mL	125 µg/mL
CCCCCCCNc1cc[n+](CCCCC[n+]2ccc(NCCCCCCC)cc2)cc1 [Example 60, 1,5-bis-[4-(heptylamino)-1-pyridinium]pentane dibromide]	0.49 µg/mL	31.3 µg/mL	active	15.6 µg/mL	15.6 µg/mL	3.9 µg/mL	31.3 µg/mL	7.8 µg/mL	> 125 µg/mL	1.95 µg/mL	7.8 µg/mL	15.6 µg/mL	125 µg/mL
CCCCC(CC)CNc1cc[n+](CCCCCCCCC[n+]2ccc(NCC(CC)CCCC)cc2)cc1 (stereo not shown) [Example 57, 1,9-bis-[4-(2-ethylhexylamino)-1-pyridinium]nonane dibromide]	0.31 µg/mL	7.8 µg/mL	active	3.9 µg/mL	3.9 µg/mL	0.98 µg/mL	0.98 µg/mL	0.98 µg/mL	125 µg/mL	0.625 µg/mL	0.98 µg/mL	15.6 µg/mL	125 µg/mL
c1c[n+](CCCCCCC[n+]2ccc(NC3CCCCC3)cc2)ccc1NC1CCCCC1 [Example 37, 1,7-bis-[4-(cyclohexylamino)-1-pyridinium]heptane dibromide]	7.8 µg/mL	> 125 µg/mL	active	125 µg/mL	125 µg/mL	125 µg/mL	> 125 µg/mL	> 125 µg/mL	> 125 µg/mL	7.8 µg/mL	15.6 µg/mL	> 125 µg/mL	125 µg/mL
c1c[n+](CCCCC[n+]2ccc(NC3CCCCC3)cc2)ccc1NC1CCCCC1 [Example 35, 1,5-bis-[4-(cyclohexylamino)-1-pyridinium]pentane dibromide]	125 µg/mL	> 500 µg/mL	active	500 µg/mL	500 µg/mL	> 500 µg/mL	> 500 µg/mL	> 500 µg/mL	> 500 µg/mL	15.6 µg/mL	125 µg/mL	500 µg/mL	> 500 µg/mL
CCCCC(CC)CNc1cc[n+](CCCCC[n+]2ccc(NCC(CC)CCCC)cc2)cc1 (stereo not shown) [Example 53, 1,5-bis-[4-(2-ethylhexylamino)-1-pyridinium]pentane dibromide]	0.49 µg/mL	> 125 µg/mL	active	31.3 µg/mL	15.6 µg/mL	7.8 µg/mL	15.6 µg/mL	15.6 µg/mL	> 125 µg/mL	0.625 µg/mL	7.8 µg/mL	31.3 µg/mL	125 µg/mL
c1c[n+](CCCC[n+]2ccc(NC3CCCCC3)cc2)ccc1NC1CCCCC1 [Example 34, 1,4-bis-[4-(cyclohexylamino)-1-pyridinium]butane dibromide]	125 µg/mL	> 500 µg/mL	inactive	500 µg/mL	500 µg/mL	125 µg/mL	125 µg/mL	125 µg/mL	> 500 µg/mL	31.3 µg/mL	125 µg/mL	500 µg/mL	> 500 µg/mL
